Legend:
[1] = tested on: ovarian cancer cells (SKOV-3 cells); experiment: Death of anticancer agent-resistant ovarian cancer cells on co-treatment with cisplatin (MTT); format: cell-based; conditions: 10 μM pre-treated 30 minutes, cisplatin 50 μM, 24 hours, LY255283 compared to cisplatin alone, AC compounds compared with LY255283 co-treatment
Protocol: The death of cancer cells was detected using a 3-(4,5-dimethylthiazol-2-yl)-2,5-diphenyltetrazolium bromide (MTT) method. More specifically, 1×10^5 of the ovarian cancer cells (SKOV-3 cells) resistant to the anti-cancer agents were dispensed on a 12-well culture dish, and cultured for 24 hours. A 0.5% serum RPMI medium was pre-treated with each of the compound prepared in one of the examples (10 μM), 10 μM of DMSO (compound solvent) as a control, and 10 μM of LY255283 as a positive control for 30 minutes. Afterward, 50 μM of an anti-cancer agent, cisplatin, was treated, and then the cells were cultured 24 hours. A 20 μL of an MTT solution (5 mg/mL, Sigma-Aldrich) was added to each well, and the cells were cultured in a humid CO2 incubator at 37° C. for 4 hours. Afterward, the supernatant was removed, and 500 µL of DMSO was added to each well to dissolve insoluble violet formazan crystals. Absorbance was measured using a microplate reader (Molecular Devices, Sunnyvale, Calif.) at 550 nm, and the measurement was repeated three times.

[2] = target: T1, BLT1 (Homo sapiens, UniProt Q15722); experiment: LTB4-induced chemotactic motility of BLT1-expressing cells (Transwell); format: cell-based; conditions: CHO-BLT1 cells, LTB4 10 nM
T1 construct: expressed in transfected cells; host or cells: CHO cells (CHO-BLT1)
Protocol: (§1) Chemotactic motility was analyzed using a Transwell chamber including a polycarbonate filter (8-μm pore size, Corning Costar) with a 6.5-mm diameter. Specifically, the lower surface of the filter was coated with 10 μg/mL fibronectin in a serum-free RPMI 1640 medium at 37° C. for 1 hour. The experiment was performed by placing the filter dried and coated with RPMI 1640 media containing various amounts of LTB4 in the lower wells of the Transwell chamber, and loading CHO cells, which stably express both BLT1 and BLT2, into the upper wells containing serum-free RPMI 1640 media finally at 2×10^4 cells/100 μL. To evaluate the effect of inhibitors, the cells were pre-treated with each inhibitor for 30 minutes before dispensing. After the cells were cultured at 37° C. in 5% CO2 for 3 hours, the filters were fixed with methanol for 3 minutes, and stained with hematoxylin and eosin for 10 minutes. […] The chemotactic motility was quantitatively analyzed by counting the cells on the lower side of the filter under an optical microscope (magnification, 200×). For each analysis, 6 fields were subjected to counting, each sample was analyzed twice, and the analysis was repeated three times.

[3] = tested on: BLT2-expressing cells (CHO-BLT2 cells); experiment: LPA-induced chemotactic motility of CHO-BLT2 cells (Transwell); format: cell-based; conditions: LPA 100 nM
Protocol: Chemotactic motility was analyzed using a Transwell chamber including a polycarbonate filter (8-μm pore size, Corning Costar) with a 6.5-mm diameter. […] To evaluate the effect of inhibitors, the cells were pre-treated with each inhibitor for 30 minutes before dispensing. After the cells were cultured at 37° C. in 5% CO2 for 3 hours, the filters were fixed with methanol for 3 minutes, and stained with hematoxylin and eosin for 10 minutes. […] The chemotactic motility was quantitatively analyzed by counting the cells on the lower side of the filter under an optical microscope (magnification, 200×). For each analysis, 6 fields were subjected to counting, each sample was analyzed twice, and the analysis was repeated three times.

[4] = target: T2, BLT2 (Homo sapiens, UniProt Q9NPC1); experiment: biochemical
T2 sequence (Q9NPC1 with tags, fused parts or gaps): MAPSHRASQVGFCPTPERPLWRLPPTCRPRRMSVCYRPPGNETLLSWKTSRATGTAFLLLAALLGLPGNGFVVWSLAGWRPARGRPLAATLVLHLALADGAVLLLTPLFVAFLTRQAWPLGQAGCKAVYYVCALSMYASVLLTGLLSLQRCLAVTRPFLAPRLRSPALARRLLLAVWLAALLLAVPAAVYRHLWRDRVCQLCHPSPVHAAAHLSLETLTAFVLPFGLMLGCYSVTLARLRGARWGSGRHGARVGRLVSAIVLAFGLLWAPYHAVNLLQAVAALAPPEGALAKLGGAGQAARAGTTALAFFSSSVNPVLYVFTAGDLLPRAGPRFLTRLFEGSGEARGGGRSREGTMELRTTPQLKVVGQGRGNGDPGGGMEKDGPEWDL
Protocol: (§2) In addition, in order to prepare stable CHO/BLT2 clones, CHO-K1 cells were transformed with pcDNA3-long form BLT2 encoding HA-tagged human BLT2, and selected with 0.4 mg/ml of G418 (Invitrogen, Carlsbad, Calif., USA).

[5] = tested on: interleukin-4 (IL-4); experiment: IL-4 production in severely asthma-induced mice; format: in vivo; conditions: severely asthma-induced mice (FIG. 8), cells separated from the abdominal cavity, pre-treated (method 5 mg/kg intraperitoneally)
Source text: Mast cells play a pivotal role in the initial reaction to asthma, and when an allergen enters the body from the outside through an airway, the mast cells are activated, thereby secreting various cytokines (interleukin-4 and interleukin-13). Due to the cytokines, the influx of inflammatory cells, and the generation of mucus and the airway contraction occur. The inventors used 7-week-old (18 to 20 g) female BALB/c mice provided by Orient (Seoungnam, Korea) for the experiment to confirm the anti-asthma effect, and asthma was induced in the mice. On day 1 and day 14, 2.5 mg of an adjuvant aluminum hydroxide gel (alum; Pierce, Rockford, Ill.) containing a […] of ovalbumin (OVA) was injected intraperitoneally to sensitize the female […] mice. After the two initial sensitizations, on day 21, day 22 and day 23, 1% OVA was sprayed into the mice using an ultrasonic nebulizer. […] After the initial sensitizations, on day 24, AHR was detected, and on day 25, the mice were dissected to observe asthma phenotypes such as the expression of an inflammatory cytokine IL-4, and the influx of the inflammatory cells (neutrophils). In addition, the AHR detection was performed after an airway constrictor methacholine (6.25 to 50 mg/ml depending on conditions) was administered to the mice. […] The AHR was analyzed using an enhanced pause as the indicator of the asthma phenomenon.

[6] = tested on: asthma-induced mice; experiment: Airway hyperresponsiveness (AHR) in OVA asthma-induced mice; format: in vivo
Source text: Mast cells play a pivotal role in the initial reaction to asthma, and when an allergen enters the body from the outside through an airway, the mast cells are activated, thereby secreting various cytokines (interleukin-4 and interleukin-13). Due to the cytokines, the influx of inflammatory cells, and the generation of mucus and the airway contraction occur. The inventors used 7-week-old (18 to 20 g) female BALB/c mice provided by Orient (Seoungnam, Korea) for the experiment to confirm the anti-asthma effect, and asthma was induced in the mice. On day 1 and day 14, 2.5 mg of an adjuvant aluminum hydroxide gel (alum; Pierce, Rockford, Ill.) containing a […] of ovalbumin (OVA) was injected intraperitoneally to sensitize the female […] mice. After the two initial sensitizations, on day 21, day 22 and day 23, 1% OVA was sprayed into the mice using an ultrasonic nebulizer. […] After the initial sensitizations, on day 24, AHR was detected, and on day 25, the mice were dissected to observe asthma phenotypes such as the expression of an inflammatory cytokine IL-4, and the influx of the inflammatory cells (neutrophils). In addition, the AHR detection was performed after an airway constrictor methacholine (6.25 to 50 mg/ml depending on conditions) was administered to the mice. The administration of the airway constrictor was performed by spraying through an inlet of the chamber using an ultrasonic nebulizer for 3 minutes. The AHR was analyzed using an enhanced pause as the indicator of the asthma phenomenon.

[7] = tested on: BLT2-expressing cells (CHO-BLT2 cells); experiment: Inhibition of LTB4-induced growth of BLT2-expressing cells (MTT); format: cell-based, human; conditions: LTB4 300 nM, 24 hours
Protocol: Cell viability according to treatment of the compounds prepared in the examples were measured by a 3-(4,5-dimethylthiazol-2-yl)-2,5-diphenyltetrazolium bromide (MTT) method.
More specifically, 1×10^4 each of the BLT2-nonexpressing cells (CHO-pcDNA3.1 cells) and BLT2-expressing cells (CHO-BLT2 cells), which were prepared in Experimental Example 1, were dispensed in a […], and cultured for 24 hours. Afterward, the culture medium was removed, a serum-free RPMI medium was added, and after two hours, the cells were pre-treated with each of the compound prepared in one of the examples (10 μM), 10 μM DMSO (compound solvent) as a control, and 10 μM of 1-[5-ethyl-2-hydroxy-4-[[6-methyl-6-(1H-tetrazol-5-yl)heptyl]oxy]phenyl]-ethanone (LY255283; Cayman) as a positive control for 1 hour. Subsequently, after treatment of LTB4 (300 nM), the cells were cultured for 24 hours. 20 μL of an MTT solution (5 mg/mL, Sigma-Aldrich) was added to each well, the cells were cultured in a humid CO2 incubator at 37° C. for 4 hours, and then the supernatant was removed, and 200 μL of DMSO was added to each well to dissolve insoluble violet formazan crystals. Absorbance was measured using a microplate reader (Molecular Devices, Sunnyvale, Calif.) at 550 nm, and the measurement was repeated three times.

[8] = target: T2, BLT2; experiment: LTB4-induced BLT2-dependent chemotactic motility (Transwell); format: cell-based; parameters: expressed in transfected cells; conditions: CHO-BLT2 cells, LTB4 300 nM
Protocol: as §2, §1

[9] = severely asthma-induced mice (FIG. 7), airway constrictor 50 mg/ml, pre-treated (method 5 mg/kg intraperitoneally)

T1 sequence (Q15722 whole entry, species assumed): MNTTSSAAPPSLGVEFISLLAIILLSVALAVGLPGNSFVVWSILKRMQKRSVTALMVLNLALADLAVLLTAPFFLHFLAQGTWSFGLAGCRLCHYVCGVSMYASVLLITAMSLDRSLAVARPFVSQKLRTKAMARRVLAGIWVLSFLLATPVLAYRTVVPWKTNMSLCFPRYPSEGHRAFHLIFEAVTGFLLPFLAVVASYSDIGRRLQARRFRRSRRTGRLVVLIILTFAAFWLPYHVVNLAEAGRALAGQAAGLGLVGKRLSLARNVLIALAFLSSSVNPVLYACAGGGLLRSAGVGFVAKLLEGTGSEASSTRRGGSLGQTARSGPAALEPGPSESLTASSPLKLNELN

**Q.** With `CCCCC(=O)N(Cc1ccc(-c2ccc(O)cc2)cc1)c1cccc(F)c1` [AC-1070, N-(3-fluorophenyl)-N-((4′-hydroxybiphenyl-4-yl)methyl)pentaneamide] as the molecule, how does the “death of cancer cells on co-treatment with cisplatin” value (“death of cancer cells” for short) [1] read?
**A.** Its value is “highly increase”.

**Q.** How did the “death of cancer cells” value [1] turn out when `CCCCC(=O)N(Cc1ccc(-c2ccc(C(=O)O)cc2)cc1)c1ccc(F)cc1` [AC-1072, 4′-((N-(4-fluorophenyl)pentaneamido)methyl)biphenyl-4-carboxylic acid] was run?
**A.** Its value is “highly increase”.

**Q.** With `CCCCC(=O)N(Cc1ccc(-c2ccc(OCC(=O)O)cc2)cc1)c1ccccc1` [AC-1073, 2-(4′-((N-phenylpentaneamido)methyl)biphenyl-4-yloxy)acetic acid] as the molecule, how does the “death of cancer cells” value [1] read?
**A.** Its value is “highly increase”.

**Q.** How did the “change in chemotactic motility compared with LTB4 (DMSO+)” value ([2]; 10 μM pre-treatment) turn out when `CCCCC(=O)N(Cc1ccc(-c2ccc(OCC(=O)O)cc2)cc1)c1cccc(F)c1` [AC-1074, 2-(4′-((N-(3-fluorophenyl)pentaneamido)methyl)biphenyl-4-yloxy)acetic acid] was run?
**A.** The value was “no change”.

**Q.** And the “death of cancer cells” value [1]?
**A.** Its value is “highly increase”.

**Q.** And the “change in chemotactic motility compared with LPA (DMSO+)” value ([3]; 10 μM pre-treatment)?
**A.** The value was “no change”.

**Q.** What about the IC50 [4] of the same molecule?
**A.** Its IC50 is 140 nM.

**Q.** And the “production of IL-4 reduced” value [5]?
**A.** The value was 35.5%.

**Q.** And the AHR reduced ([6]; asthma-induced mice (FIG. 6), airway constrictor methacholine 50 mg/ml, pre-treated (printed 10 μM; method 5 mg/kg intraperitoneally))?
**A.** The AHR reduced was 42%.

**Q.** And the AHR reduced [6, 9]?
**A.** The AHR reduced was 59%.

**Q.** With `CCCCC(=O)N(Cc1ccc(-c2ccc(OC)cc2)cc1)c1cccc(F)c1` [AC-1646, N-(3-fluorophenyl)-N-((4′-methoxybiphenyl-4-yl)methyl) pentaneamide] as the molecule, how does the growth inhibitory effect ([7]; compound 10 μM pre-treated 1 hour) read?
**A.** Its growth inhibitory effect is 72.1%.

**Q.** `CCCCC/C=C\C[C@@H](O)/C=C/C=C/C=C\[C@@H](O)CCCC(=O)O` [LTB4, leukotriene B4, reference compound] was tested. Which “chemotactic motility increase compared with ethanol (DMSO−)” value (“chemotactic motility increase” below) [2] did it give?
**A.** The value was 2.8 times.

**Q.** What about the “chemotactic motility increase” value [8] of the same molecule?
**A.** The value was 2.9 times.

**Q.** What does the source list for `CCc1cc(C(C)=O)c(O)cc1OCCCCCC(C)(C)c1nnn[nH]1` [LY255283, 1-[5-ethyl-2-hydroxy-4-[[6-methyl-6-(1H-tetrazol-5-yl)heptyl]oxy]phenyl]-ethanone, reference compound]?
**A.** death of cancer cells on co-treatment with cisplatin [1]: increased; cell growth compared with control DMSO ([7]; pre-treated with 10 μM): approximately 90%; chemotactic motility compared with those treated with the ligand LTB4 ([8]; 10 μM pre-treatment): 90%; production of IL-4 reduced [5]: 67.2%; AHR reduced [6, 9]: 69.2%

**Q.** “lysophosphatidic acid [LPA, reference compound]” was tested. Which “chemotactic motility increase” value [3] did it give?
**A.** Its value is 3.4 times.
